Here are results for one molecule from US20230133958A1, “COMPOUNDS USEFUL IN MODULATING EGFR AND PI3K” (Mekanistic Therapeutics LLC, priority 2021, published 2023).

Data set [1] is described as follows: Metabolic stability in human liver microsomes. Format: in vitro ADME. The settings on record: Human Liver Microsome (HLM). The method, then: (§1) Working solution: 5 µL of compound and control stock solution (10 mM in dimethyl sulfoxide (DMSO)) were diluted with 495 µL of acetonitrile (ACN) (intermediate solution concentration: 100 µM, 99% ACN)
(§2) NADPH Cofactor Preparation: NADPH powder: β-Nicotinamide adenine dinucleotide phosphate reduced form, tetrasodium salt; NADPH 4 Na. The appropriate amount of NADPH powder was weighed and diluted into a 10 mM MgCl2 solution (working solution concentration: 10 unit/mL; final concentration in reaction system: 1 unit/mL)
(§3) Liver Microsomes Preparation: The appropriate concentrations of microsome working solutions were prepared in 100 mM potassium phosphate buffer. Cold (4° C.) acetonitrile (ACN) containing 200 ng/mL tolbutamide and 200 ng/mL labetalol as internal standards (IS) was used as the stop solution
(§4) Assay Procedure: Pre-warm empty ‘Incubation’ plates T60 and NCF60 for 10 minutes. Dilute liver microsomes to 0.56 mg/mL in 100 mM phosphate buffer. Transfer 445 µL microsome working solutions (0.56 mg/mL) into pre-warmed ‘Incubation’ plates T60 and NCF60, Then pre-incubate ‘Incubation’ plates T60 and NCF60 for 10 min at 37° C. with constant shaking. […]
(§5) The biological stability of the compounds of the invention can be measured by determining its ½ life in the presence microsomes. […]
In general terms: Liver microsomes are vesicles of endoplasmic reticulum, rich in cytochrome P450 enzymes.

A short description of data set [2]: Metabolic stability in mouse liver microsomes. The settings on record: Mouse Liver Microsome (MLM). Type of data set: in vitro ADME. As for the experimental part: as §1, §2, §3, §4, §5

One may read the half-life as the time in which the quantity being followed falls by half. Take `CS(=O)(=O)Nc1cc(-c2ccc3ncnc(Nc4cccc(Cl)c4F)c3c2)cnc1Cl` [Compound 6, N-[2-chloro-5-[4-(3-chloro-2-fluoro-anilino)quinazolin-6-yl]-3-pyridyl] methanesulfonamide]: the half-life at 1 µM in data set [1] and in data set [2] was 10 to 100 min in each case.
